Results: US12583891B2, “Peptides and methods for the treatment of diabetes” (IMCYSE SA, priority 2017, dated 2026)

Experiments:
[1] = Reductase (reducing) activity of peptides, fluorescent FITC-peptide assay; format: biochemical; settings: fluorescent FITC-peptide disulfide reduction; dithiothreitol control = 100%
Procedure: The reductase activity of the peptides is determined using a fluorescent described in Tomazzolli et al. (2006) Anal. Biochem. 350, 105-112. Two peptides with a FITC label become self-quenching when they covalently attached to each other via a disulfide bridge. Upon reduction by a peptide in accordance with the present invention, the reduced individual peptides become fluorescent again.
Control experiments were performed with dithiothreitol (100% reducing activity) and water (100% reducing activity).

[2] = test system: CD4+ T cell line from a T1D patient (T1D07); assay: Interferon gamma release by cytolytic CD4+ T cell line; format: cell-based, human; settings: for IFN-gamma (pg/ml), Stimulus 1: T cell line primed with p17-001, after 12 stimulations, co-culture with autologous LCL B cells loaded (2 μM) with peptide, supernatant after 24 hours, multiplex assay
Procedure: Interferon gamma is an important marker to characterise cytolytic CD4+ T cells. A specific CD4+ T cell line was obtained by priming and stimulating naïve CD4+ T cells from a T1D patient (T1D07) with peptide p17-001. After 12 stimulations, cells were co-cultured with autologous LCL B cells loaded (2 μM) with peptide p17-001 or p17-003. After 24 hours, supernatants were collected and IFN-gamma was measured by multiplex assay (see table 1 below).

[3] = test system: CD4+ T cell lines from T1D patients; assay: FasL release by cytolytic CD4+ T cell lines; format: cell-based, human; settings: for FasL expression (pg/ml) Stimulation 1: day 11 of stimulation 1; for FasL expression (pg/ml) Stimulation 1 / FasL expression (pg/ml) Stimulation 2 / FasL expression (pg/ml) Stimulation 3 / FasL expression (pg/ml) Stimulation 4: restimulation with corresponding peptide presented by autologous B cells; for FasL expression (pg/ml) Stimulation 1 / FasL expression (pg/ml) Stimulation 2: supernatant after 24 h; for FasL expression (pg/ml) Stimulation 2: day 11 of stimulation 2; for FasL expression (pg/ml) Stimulation 3: day 11 of stimulation 3; for FasL expression (pg/ml) Stimulation 3 / FasL expression (pg/ml) Stimulation 4: supernatant after 72 h; for FasL expression (pg/ml) Stimulation 4: day 11 of stimulation 4
Procedure: The T cell line originally generated with p17 001 as described in example 3 above was divided and stimulated with peptide P17 003 or P17 001 over 4 successive in vitro stimulations using autologous LCL B cell line as APC. At day 11 of every stimulation (total of 4), cells were tested for FasL after restimulation with their corresponding peptide presented by autologous B cells. Supernatants were collected after 24 h (stimulation 1 and 2) or 72 h (stimulation 3 and 4) of co-culture.

[4] = test system: PBMCs from T1D-patient T1D018 (IL5 positive cells); assay: sFasL release in cell lines generated from T1D-patient PBMCs; format: cell-based, human; settings: IL5 positive cells after 6 stimulation cycles, restimulated 24 h with cognate peptide; ELISA; p<0,0001
Procedure: FIG. 1: Release of sFasL in cell lines generated with p17-003 or p17-001. Cells specific for p17-003 or p17-001 (IL5 positive cells; black histograms) were restimulated for 24 h with antigen presenting cells loaded with peptides p17-003 or p17-001, depending of the peptide used for their generation, and supernatant collected after 24 h of co-culture. IL-5 negative cells are for control PBMC populations (open histograms). Results represent mean+/−SD of sFasL concentration corrected per cell number.
(§1) PBMCs from T1D-patient T1D018 were stimulated in vitro either with P17001 peptide or P17003 peptide. These two populations specifically release […] after antigenic activation. After 6 stimulation cycles with the peptides, both cell lines were enriched for IL-5 producing cells with cytokine capture beads. The two populations of Interleukin-5 negative cells were used as controls.
(§2) These four populations are then tested for specific release of sFasL, Granzyme B and cytokines after stimulation with their cognate peptide (P17-001 or P17-003). Supernatants are collected after 24 h of culture and sFasL and Granzyme B are measured by ELISA (sFasL: Diaclone 851730010; Granzyme B: eBioscience BMS2027) and cytokines by MACSplex Cytokine 12 kit (Miltenyi, 130-099-169).

[5] = test system: PBMCs from T1D-patient T1D018 (IL5 positive fraction); assay: Cytokine release in cell lines generated from T1D-patient PBMCs (MACSplex Cytokine 12 kit); format: cell-based, human; settings: supernatant after 24 h, end of stimulation 10; FIG. 2
Procedure: as §1, §2
To determine if the in vitro cultured cells from T1D donors are specific for peptide P17001 or P17003, the release of cytokines, a hallmark for cell activation upon peptide stimulation, was investigated using MACSplex Cytokine 12 kit (Miltenyi, 130-099-169). Supernatant was collected after 24 h from the culture of T1D donor PBMCs in the absence or presence of the peptide. […] Specificity test was performed at the end of stimulation 10 (resting day). The result is presented as the difference in concentration of each cytokine in the condition without and with peptide.

## O[C@H](CS)[C@H](O)CS (racemic) [dithiothreitol]
[1]
  reducing activity: 100%

## HCPYC VR SLQPLALEGSLQKRG (HCPYCVRSLQPLALEGSLQKRG; peptide with redox motif and insulin T cell epitope) [P17 001, reference compound]
[1]
  reducing activity: 68%
[2]
  IFN-gamma (pg/ml), Stimulus 1: 11.1 ± 0.8 pg/mL
[3]
  FasL expression (pg/ml) Stimulation 1: 1335 ± 23.1 pg/mL
  FasL expression (pg/ml) Stimulation 2: 1144 ± 15.4 pg/mL
  FasL expression (pg/ml) Stimulation 3: 1227 ± 49.1 pg/mL
  FasL expression (pg/ml) Stimulation 4: 1008 ± 102 pg/mL

## HCPYCSLQPLALEGSLQKRG (peptide with redox motif and insulin T cell epitope) [P17 003]
[1]
  reducing activity: 65%
[2]
  IFN-gamma (pg/ml), Stimulus 1: 29.7 ± 14.1 pg/mL
[2]; ratio of Table 1 values
  IFN-gamma produced after stimulation with p17 003 compared to p17 001: about 3 times
[3]
  FasL expression (pg/ml) Stimulation 1: 1795 ± 42.4 pg/mL
  FasL expression (pg/ml) Stimulation 2: 1812 ± 34.7 pg/mL
  FasL expression (pg/ml) Stimulation 3: 2063 ± 166 pg/mL
  FasL expression (pg/ml) Stimulation 4: 1526 ± 102 pg/mL
[3]; each of the four stimulations
  FasL (sFasL) expression compared to P17-001: significantly higher
[4]
  sFasL release compared with cells generated by peptide p17-001: 4.5 fold
[5]
  eliciting peptide specific cells (cytokine release upon peptide stimulation) compared with P17001: more potent
